# Test results taken from patent publication US20090170880A1, “Methods and Means for the Treatment of Cancer” (priority 2007, published 2009).
# Read-outs that look alike come from different tables or passages of the source.
# Legend:
# [1] = test system: recurrent grade 3 and grade 4 gliomas, GBM; conditions: cited from earlier work
# [2] = Transwell experiments, recovery of temozolomide in acceptor compartment; type: in vitro ADME; conditions: after 30 min, transport medium pH 7.4
# Experimental: (§1) The parental LLC pig-kidney (PK1) cell line and sublines transduced with murine Mdr1a or human MDR1 (12) and the parental Madine Darby Canine Kidney (MDCK) and murine Bcrp1 or human BCRP transduced sublines (13) were seeded on Transwell microporous polycarbonate membrane filters (3.0 μm pore size, 24 mm diameter; Costar Corning, N.Y., USA) at a density of 1×10^6 cells per well in 2 ml of MEM medium (Invitrogen Corporation, Carlsbad, Calif.) containing 10% v/v fetal calf serum. Cells were incubated at 37° C. in 5% CO2 for three days with one medium replacement after the first day. Two hours before the start of the experiment the medium in both compartments was replaced with 2 ml of OptiMEM medium (InVitrogen Corp.). At the start of the experiment the medium in the apical or basolateral compartment was replaced with 2 ml of freshly prepared OptiMEM medium containing 40 μg/ml of temozolomide. […] Zosuquidar (LY335979, 5 μM) was always added to the medium when doing experiments with MDCK cell lines to inhibit endogenous canine P-gp. Samples of 50 μl were collected every 30 min, for up to 2 h after start of the experiment. Because temozolomide is instable in medium at 37° C., we replaced one ml of the donor compartment by a freshly prepared aliquot every 30 min. […]
# human P-gp (MDR1) = molecular target: T1, human P-gp (MDR1) (Homo sapiens, UniProt P08183); assay: Transwell transport of temozolomide, LLC-MDR1 cells; type: in vitro ADME; conditions: 40 μg/ml, LLC-MDR1 versus LLC-PK1 monolayers
# T1 construct: expressed in transfected cells; host or cells: LLC-PK1 (porcine kidney) cells transduced with human MDR1
# Experimental: as §1
# [3] = Brain penetration study, temozolomide i.v. in wild-type and knockout mice; type: in vivo; conditions: for AUC(0-t): 50 mg/kg, read-out: AUC0-7 h plasma
# Experimental: Based on previous work by Kim et al (11) we have developed a high-performance liquid chromatographic assay for the determination for quantification of temozolomide in medium used for transwell experiments and in mouse plasma and brain tissue homogenates for in vivo pharmacokinetic studies. Separation/quantification was achieved using a Symmetry® C18 column (150×2.0 mm; ID) together with a mobile phase of 7.5% of methanol in 0.5% acetic acid in water, delivered at a flow rate of 0.2 ml/min and UV detection at 330 nm ((PDA996 photodiode array detector; Waters, Milford, Mass., USA or SF 757 detector; Kratos, Ramsey, N.J., USA). Medium from transwell experiments was 10-fold diluted with 0.2% acetic acid in water and 50 μl was injected directly into the HPLC system. Temozolomide was extracted from the acidified plasma and brain tissue homogenate samples (200 μl) with 1.0 ml ethyl acetate. The dried extracts were subsequently dissolved in 100 μl of 5% methanol in 0.2% acetic acid in water and 50 μl was injected into the HPLC system. External calibration was performed since no internal standard was available. The lower and upper limit of quantitation was 0.020 and 10.0 μg/ml, respectively. Samples above the upper limit of quantification were first diluted with acidified blank human plasma. All samples from in vivo studies were analyzed in duplicate in 2 independent analytical series and repeated once more when the results differed by more than 10%.
# The brain penetration study comprised cohorts of animals receiving temozolomide (50 mg/kg) by intravenous injection in the tail vein. Each cohort consisted of at least 40 animals in which at least 6 animals were used per time point (t=15 min, 1, 2, 4 and 7 hours post temozolomide administration). […] The mice were anesthetized with metoxyflurane and blood samples were obtained by cardiac puncture and collected on ice in tubes containing potassium EDTA as anticoagulant. The tubes were placed in melting ice, centrifuged within 60 min (10 min, 5000 g, 4° C.) to separate the plasma fraction, which was transferred into clean vials, mixed with 1 M hydrochloric acid (10+1; v/v) and stored at −20° C. until analysis. Immediately after cardiac puncture the mice were killed by cervical dislocation and the brains were dissected and placed on ice. Within 60 min they were weighed and homogenized in 3 ml of ice-cold 1% of BSA in 0.05 M phosphate buffer adjusted to pH 2 and stored at −20° C. until further analysis.
# Plasma and brain AUC0-7h values and standard errors were calculated by the linear trapezoidal rule using standard equations (14). The plasma half-life of temozolomide was calculated by linear regression analysis after log transformation of the concentration data using Microsoft Excel 2003. The brain-to-plasma ratio was calculated for each individual animal. The two-sided unpaired Student's t-test was used for statistical analysis of AUC values. Bonferroni's test for multiple comparisons was calculated using SPSS (v12.0.1; SPSS Inc, Chicago, Ill., USA) for brain and plasma levels and brain-to-plasma ratios determined at 2 h post temozolomide administration with the inhibitors and for analyzing the results of the in vivo efficacy study.
# [4] = Bcrp1 knockout mice, i.v. 50 mg/kg
# [5] = Bcrp, Mdr1ab knockout mice, i.v. 50 mg/kg
# [6] = Mdr1ab knockout mice, i.v. 50 mg/kg
# T1 sequence (P08183 whole entry): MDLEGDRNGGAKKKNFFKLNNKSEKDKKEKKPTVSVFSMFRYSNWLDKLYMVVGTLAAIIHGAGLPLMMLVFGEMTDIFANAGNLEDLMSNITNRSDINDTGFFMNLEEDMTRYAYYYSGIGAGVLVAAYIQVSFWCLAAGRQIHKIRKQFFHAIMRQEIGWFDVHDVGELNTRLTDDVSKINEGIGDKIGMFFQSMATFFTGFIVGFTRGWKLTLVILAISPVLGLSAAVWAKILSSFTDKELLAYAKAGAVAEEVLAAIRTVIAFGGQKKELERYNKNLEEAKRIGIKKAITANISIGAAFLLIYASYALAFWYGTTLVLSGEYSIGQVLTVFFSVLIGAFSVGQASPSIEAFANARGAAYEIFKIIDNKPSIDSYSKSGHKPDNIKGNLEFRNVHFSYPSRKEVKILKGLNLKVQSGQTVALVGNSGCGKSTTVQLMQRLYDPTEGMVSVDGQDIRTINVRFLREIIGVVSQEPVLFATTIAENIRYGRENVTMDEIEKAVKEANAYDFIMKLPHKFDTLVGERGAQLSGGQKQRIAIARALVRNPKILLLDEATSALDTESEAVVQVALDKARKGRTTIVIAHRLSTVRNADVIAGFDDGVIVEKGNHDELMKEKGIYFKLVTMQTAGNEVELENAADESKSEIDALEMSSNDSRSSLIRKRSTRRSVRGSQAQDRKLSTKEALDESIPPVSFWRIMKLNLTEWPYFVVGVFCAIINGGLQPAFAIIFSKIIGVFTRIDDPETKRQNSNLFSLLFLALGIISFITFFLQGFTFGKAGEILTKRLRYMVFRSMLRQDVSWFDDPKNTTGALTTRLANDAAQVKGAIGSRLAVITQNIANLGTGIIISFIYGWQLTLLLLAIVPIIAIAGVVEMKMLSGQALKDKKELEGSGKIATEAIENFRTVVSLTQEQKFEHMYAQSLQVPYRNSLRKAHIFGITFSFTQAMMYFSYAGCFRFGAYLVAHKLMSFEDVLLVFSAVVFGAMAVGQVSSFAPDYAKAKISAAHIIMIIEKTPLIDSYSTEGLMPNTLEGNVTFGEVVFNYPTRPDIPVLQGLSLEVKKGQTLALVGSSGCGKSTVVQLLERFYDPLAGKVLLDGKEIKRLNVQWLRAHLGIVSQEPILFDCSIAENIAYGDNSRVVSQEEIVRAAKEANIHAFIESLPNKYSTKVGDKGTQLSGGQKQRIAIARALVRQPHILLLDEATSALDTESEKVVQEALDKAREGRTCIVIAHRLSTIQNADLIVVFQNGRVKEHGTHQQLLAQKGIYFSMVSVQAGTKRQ
compound,measurement,setting,value
"Cn1nnc2c(C(N)=O)ncn2c1=O [temozolomide, 8-carbamoyl-3-methyl-[3H]-imidazo[5,1-d]-1,2,3,5-tetrazin-4-one]",progression free survival compared to procarbazine,[1]; patients,significantly longer
same,"survival, radiotherapy with concomitant and adjuvant temozolomide versus radiotherapy alone",[1]; phase III trial,significant survival benefit
same,objective response rate,[1]; recurrent grade 3 gliomas,35%
same,objective response rate,[1]; recurrent grade 4 gliomas,8%
same,dose recovered in the acceptor compartment,[2],at least 5%
same,transport of temozolomide by human P-gp,human P-gp (MDR1),very limited if any evidence for transport
same,transport of temozolomide by human P-gp,human P-gp (MDR1); listed as Temozolomide,not readily detected
same,increase of brain penetration / accumulation relative to wild-type,"[3]; Bcrp1/Mdr1ab knockout mice, i.v. 50 mg/kg",50%
same,"AUC0-7 h, brain",[3]; [4],44.78 ± 1.88^1 μg/g · h
same,T½plasma,[3]; [4],0.719 ± 0.017^ns h
same,"AUC0-7 h, brain",[3]; [5],"56.46 ± 1.17^1,2,3 μg/g · h"
same,T½plasma,[3]; [5],0.705 ± 0.014^ns h
same,AUC(0-t),"[3]; FVB, mouse, plasma, iv, Bcrp1 knockout mice, i.v. 50 mg/kg",63000 ± 2140 ng·h/mL
same,AUC(0-t),"[3]; FVB, mouse, plasma, iv, Bcrp, Mdr1ab knockout mice, i.v. 50 mg/kg",64500 ± 1290 ng·h/mL
same,AUC(0-t),"[3]; FVB, mouse, plasma, iv, Mdr1ab knockout mice, i.v. 50 mg/kg",62200 ± 2050 ng·h/mL
same,AUC(0-t),"[3]; FVB, mouse, plasma, iv, Wild-type mice, i.v. 50 mg/kg",65400 ± 2000 ng·h/mL
same,half-life,"[3]; FVB, mouse, plasma, iv, mice, i.v. 50 mg/kg, read-out: plasma half-life, first-order elimination (converted)",42 min
same,"AUC0-7 h, brain",[3]; [6],44.51 ± 1.56^1 μg/g · h
same,T½plasma,[3]; [6],0.757 ± 0.021^ns h
same,"AUC0-7 h, brain","[3]; Wild-type mice, i.v. 50 mg/kg",37.73 ± 1.11 µg·h/g
same,T½plasma,"[3]; Wild-type mice, i.v. 50 mg/kg",0.689 ± 0.019 h
same,enhancement of the brain penetration,[3]; absence of both P-gp and Bcrp1 versus wild-type,1.5 fold
